In one data set the test system is UC. The note with it: versus placebo; cited from earlier work.
Data set [1] can be described thus: Cobitolimod suspension limit in Capryol only. The format is physicochemical. The following applies: corresponding to 13-14% cobitolimod in Capryol PGMC. The protocol:
The cobitolimod suspension limit in Capryol only was assessed by repeating the steps of (i) adding the API to Capryol, (ii) spatula stirring and (iii) sonication, until the suspension became unworkable due to, for example, being too viscous, agglomerates forming that would not break down etc.

Data set [2] is described as follows: Chemical stability assessment of core formulations (HPLC assay and related substances). The format is physicochemical. The note with it: reference raw material. The protocol: The bulk mixes were assessed physically and chemically initially and following four weeks of storage at 40° C./75% RH. For the physical assessments, samples were assessed visually for appearance changes, focusing on colour and physical behaviour.
The samples were run on an X Bridge BEH C18, 2.5 μm, 4.6 mm×50 mm column with a flow rate of 0.4 ml/min at 60° C., a run time of 60 minutes and a detection wavelength of 260 nm. The sample injection volume was […] with a sampler temperature of 5° C. The mobile phase compositions were as follows: • Mobile phase A 3% Acetonitrile in 0.2% TEA, 1% HFIP, • Mobile phase B 12% Acetonitrile in 0.2% TEA, 1% HFIP, • Mobile phase C Acetonitrile, • Mobile phase D water.

The next data set deals with chronic active UC. The following applies: cited from earlier work.
For data set [3] the following is noted: observed during manufacture of Example 3 formulation.
Protocol: The vials were then high shear mixed for a minimum of 2×2 minutes then allowed to settle, all had visible insoluble material, therefore the samples were then high shear mixed for a further 2 minutes and visually assessed before samples taken for pH analysis. pH analysis involved centrifuging the sample at 14000 RPM for 10 minutes to separate out the insoluble material and then diluting 1 g of the clear supernatant with 3 g of deionised water, mixing thoroughly and measuring the pH.

Oligonucleotides are written 5' to 3', each unit as a sugar letter and its base; * is a phosphorothioate linkage, no mark a phosphodiester; rarer units and linkages stand in square brackets, end groups in braces. Plain capitals give the bases only. d = 2'-deoxy (DNA)

In the case of “vedolizumab: α4β7 integrin inhibitor approved for the treatment of UC”, the “inducing and maintaining clinical response, clinical remission, and mucosal healing” value with UC is recorded as “more effective than placebo”.
With “5′-G*G*A*ACAGTTCGTCCAT*G*G*C-3′ (DNA dG*dG*dA*dAdCdAdGdTdTdCdGdTdCdCdAdT*dG*dG*dC) [cobitolimod]”, in data set [1], the “limit of suspendability expressed per capsule” value is listed as “approx. 53 mg cobitolimod/capsule”. In data set [2], this molecule displayed an impurity level of 5.3 area %. In addition, the safety and tolerability entry with chronic active UC (human, in vivo) is “safe and well tolerated”. Further, in the data set on chronic active UC (patients with chronic active UC), the clinical efficacy entry was “effective to induce clinical response and remission”.
With `NC(CO)(CO)CO` [tromethamine], the “solubility of tromethamine in Capryol PGMC” value in data set [3] is recorded as “some insolubility”.
